Reference: patent US20100048511A1, “COMPLEX FORMULATION FOR PREVENTING OR TREATING OSTEOPOROSIS WHICH COMPRISES SOLID DISPERSION OF VITAMIN D OR ITS DERIVATIVE AND BISPHOSPHONATE” (priority 2006, published 2010)

What was measured:
[1] = Stability test of the solid dispersion comprising vitamin D (cholecalciferol content by HPLC, 60° C. dried oven); type: physicochemical
Procedure: The time-dependent change of the cholecalciferol content of each test material was analyzed using the solid dispersions prepared in Comparative Example 2 (0.07 mg of cholecalciferol) and Examples 1 to 4 as test materials, during the period of incubating the test materials in a 60° C. dried oven.
Each test material was pretreated as follows, before the analysis of cholecalciferol.
Each test material was taken in the amount corresponding to about 28 mg cholecalciferol and placed in a 50 ml flask, 5 ml of 0.01 M HCl was added thereto, the mixture was ultrasonicated for 3 minutes, and the flask was filled with ethanol. 15 ml of the resulting solution was mixed with 5 ml of purified water and 20 ml of n-hexane for 5 minutes, and centrifuged at 2000 rpm for 5 minutes. 10 ml of the supernatant was harvested, evaporated under a reduced pressure, and 2 ml of n-hexane was added thereto. The cholecalciferol content of each test material was analyzed by HPLC under the following conditions. The results are shown in Table 7. • Column: silica column (5 μm, 4.6 mm×250 mm) • Mobile phase: (chloroform: n-hexane: tetrahydrofuran=650:350:10 (v/v)) • Injecting volume: 100 μl • Flow rate: 1.0 ml/min • Detector: ultraviolet spectrophotometer (wavelength: 254 nm; L-7400, HITACHI, Japan)

[2] = preserved at 40° C. for 4 days; cited from earlier work

Row | Compound | cholecalciferol content ([1]; 2 weeks) [%] | cholecalciferol content ([1]; 4 weeks) [%] | cholecalciferol content ([1]; incubation time 0) [%] | content of vitamin D3 in the formulation, of the original content [2]
1 | C=C1CC[C@H](O)C/C1=C/C=C1\CCC[C@]2(C)[C@@H]([C@H](C)CCCC(C)C)CC[C@@H]12 [Comparative Example 2, cholecalciferol] | 3.3 | 0.0 | 100 | 
2 | C=C1CC[C@H](O)C/C1=C/C=C1\CCC[C@]2(C)[C@@H]([C@H](C)CCCC(C)C)CC[C@@H]12 [vitamin D3, cholecalciferol] |  |  |  | about 86.3%
